Reference: patent US8716493B2, “Multicyclic compounds and the use thereof” (Cephalon, Inc., priority 2000, dated 2014)
Like-named read-outs stand apart in the source and are kept apart here.

Experiments:
[1] = target: T1, human VEGFR2 cytoplasmic domain (Homo sapiens, UniProt P35968); experiment: Measurement of VEGFR2 kinase enzymatic activity (time-resolved fluorescence, PLC-γ/GST substrate); assay type: biochemical; settings: Table 5; for VEGFR2 % @ 300 nM: percent inhibition at 300 nM
T1 construct: recombinant human baculovirus-expressed human VEGFR2 cytoplasmic domain; host or cells: baculovirus-expressed
Protocol: A 96-well FluoroNUNC MaxiSorp plate was coated with 100 μL/well of recombinant human PLC-γ/GST substrate solution at a concentration of 40 μg/mL in Tris-buffered saline (TBS). The VEGFR2 activity was assayed in a 100 μL assay mixture containing 50 mM HEPES (pH 7.4), 30 μM ATP, 10 mM MnCl2, 0.1% BSA, 2% DMSO, and 150 ng/mL recombinant human baculovirus-expressed human VEGFR2 cytoplasmic domain (prephosphorylated for 60 min at 4° C. in the presence of 30 μM ATP and 10 mM MnCl2 prior to use). The kinase reaction was allowed to proceed at 37° C. for 15 min. The europium-labeled anti-phosphotyrosine detection antibody was added at 1:5000 dilution in block buffer (3% BSA in TBST). After 1 hour of incubation at 37° C., 100 μL of enhancement solution (Wallac #1244-105) was added and the plate was gently agitated. After 5 min, the time-resolved fluorescence of the resulting solution was measured using the BMG PolarStar (Model #403) using excitation and emission wavelengths of 340 nm and 615 nm, respectively, a collection delay of 400 μsec and an integration time of 400 μsec.
(§1) Single-point inhibition data were calculated by comparing PARP, VEGFR2, or MLK3 activity in the presence of inhibitor to activity in the presence of DMSO only. Inhibition curves for compounds were generated by plotting percent inhibition versus log10 of the concentration of compound. IC50 values were calculated by nonlinear regression using the sigmoidal dose-response (variable slope) equation in GraphPad Prism as follows: y=bottom+(top−bottom)/(1+10^(log IC50^−x)*Hillslope) where y is the % activity at a given concentration of compound, x is the logarithm of the concentration of compound, bottom is the % inhibition at the lowest compound concentration tested, and top is the % inhibition at the highest compound concentration examined. The values for bottom and top were fixed at 0 and 100, respectively. IC50 values were reported as the average of at least three separate determinations.
The following Examples 5 to 10 present PARP, VEGFR2, and MLK3 inhibiting data for compounds of the present invention. […] For some compounds, inhibiting data is presented as percent inhibition at a specified concentration. Compounds are tabulated together with compound number, substituents, and enzyme inhibition data.

MLK3 = target: T2, MLK3 (Homo sapiens, UniProt Q16584); experiment: Measurement of MLK3 enzymatic activity (32P phosphorylation of myelin basic protein); assay type: biochemical; settings: percent inhibition at 1 μM; Table 5
T2 construct: 2 μg/mL of baculoviral human GST-MLK1 kinase domain; GST (N); host or cells: baculovirus expression
Protocol: The activity assay for MLK3 was performed in Millipore Multiscreen plates. Each 50 μL assay mixture contained 50 mM HEPES (pH 7.0), 1 mM EGTA, 10 mM MgCl2, 1 mM DTT, 25 mM β-glycerophosphate, 100 μM ATP, 1 μCi [γ-^32P]ATP, 0.1% BSA, 500 μg/mL myelin basic protein, 2% DMSO, various concentrations of test compounds, and 2 μg/mL of baculoviral human GST-MLK1 kinase domain. Samples were incubated for 15 min at 37° C. The reaction was stopped by adding ice-cold 50% TCA and the proteins were allowed to precipitate for 30 min at 4° C.
as §1
For some compounds, inhibiting data is presented as percent inhibition at a specified concentration. Compounds are tabulated together with compound number, substituents, and enzyme inhibition data.

[2] = test system: mouse MCA occlusion (suture thread method); settings: mice; intracerebroventricular administration; two hour MCA occlusion; cited from earlier work
[3] = test system: suture occlusion model of focal ischemia; settings: rat; 10 mg/kg; cited from earlier work
[4] = test system: rat model of focal cerebral ischemia; settings: i.p. 10 mg/kg two hours prior to and two hours after initiation of ischemia; cited from earlier work
recombinant human PARP = recombinant human PARP (Homo sapiens, UniProt P09874); experiment: Measurement of PARP enzymatic activity (transfer of radiolabeled ADP-ribose from NAD+ to protein acceptor); assay type: biochemical; settings: read-out: PARP IC50
In short: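 Radiometric assay measuring transfer of [32P]ADP-ribose from NAD+ (100 μM, 2 uCi/mL label) to histone or PARP automodification, 12 min at room temperature; acid-insoluble radioactivity counted by scintillation.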

T2 sequence (Q16584 117-379 limits assumed): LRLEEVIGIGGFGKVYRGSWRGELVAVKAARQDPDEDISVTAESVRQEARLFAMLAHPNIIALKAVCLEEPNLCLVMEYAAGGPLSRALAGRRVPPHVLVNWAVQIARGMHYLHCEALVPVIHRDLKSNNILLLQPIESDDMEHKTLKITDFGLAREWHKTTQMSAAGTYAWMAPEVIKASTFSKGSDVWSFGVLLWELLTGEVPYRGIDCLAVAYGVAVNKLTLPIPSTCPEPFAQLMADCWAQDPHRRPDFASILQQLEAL
recombinant human PARP, sequence (P09874 whole entry): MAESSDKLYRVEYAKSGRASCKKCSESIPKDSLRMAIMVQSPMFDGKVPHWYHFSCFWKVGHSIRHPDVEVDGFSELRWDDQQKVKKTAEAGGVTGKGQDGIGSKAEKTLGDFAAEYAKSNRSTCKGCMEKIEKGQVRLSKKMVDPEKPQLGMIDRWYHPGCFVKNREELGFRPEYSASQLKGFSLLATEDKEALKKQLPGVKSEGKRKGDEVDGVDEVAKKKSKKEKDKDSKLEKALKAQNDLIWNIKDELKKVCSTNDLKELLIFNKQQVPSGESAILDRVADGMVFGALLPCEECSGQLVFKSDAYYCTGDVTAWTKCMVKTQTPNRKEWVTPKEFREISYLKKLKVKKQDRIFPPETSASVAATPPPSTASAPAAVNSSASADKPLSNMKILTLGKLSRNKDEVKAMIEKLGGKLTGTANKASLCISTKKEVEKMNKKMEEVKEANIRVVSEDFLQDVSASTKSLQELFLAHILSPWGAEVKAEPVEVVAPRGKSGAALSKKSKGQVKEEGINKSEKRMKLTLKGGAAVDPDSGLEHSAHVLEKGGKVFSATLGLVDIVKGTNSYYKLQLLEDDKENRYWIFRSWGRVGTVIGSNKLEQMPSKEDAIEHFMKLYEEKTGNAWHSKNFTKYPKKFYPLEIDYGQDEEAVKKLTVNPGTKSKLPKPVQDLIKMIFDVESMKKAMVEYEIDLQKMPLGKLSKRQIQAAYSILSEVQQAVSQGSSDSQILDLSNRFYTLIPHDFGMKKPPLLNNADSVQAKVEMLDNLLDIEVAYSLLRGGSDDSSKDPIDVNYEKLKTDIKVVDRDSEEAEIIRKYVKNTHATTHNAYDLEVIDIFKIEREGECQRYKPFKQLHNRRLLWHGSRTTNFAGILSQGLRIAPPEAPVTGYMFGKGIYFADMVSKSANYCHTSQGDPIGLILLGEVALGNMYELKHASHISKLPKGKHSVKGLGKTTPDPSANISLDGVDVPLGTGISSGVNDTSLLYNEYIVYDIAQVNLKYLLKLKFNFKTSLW
T1 sequence (P35968 786-1356 limits assumed): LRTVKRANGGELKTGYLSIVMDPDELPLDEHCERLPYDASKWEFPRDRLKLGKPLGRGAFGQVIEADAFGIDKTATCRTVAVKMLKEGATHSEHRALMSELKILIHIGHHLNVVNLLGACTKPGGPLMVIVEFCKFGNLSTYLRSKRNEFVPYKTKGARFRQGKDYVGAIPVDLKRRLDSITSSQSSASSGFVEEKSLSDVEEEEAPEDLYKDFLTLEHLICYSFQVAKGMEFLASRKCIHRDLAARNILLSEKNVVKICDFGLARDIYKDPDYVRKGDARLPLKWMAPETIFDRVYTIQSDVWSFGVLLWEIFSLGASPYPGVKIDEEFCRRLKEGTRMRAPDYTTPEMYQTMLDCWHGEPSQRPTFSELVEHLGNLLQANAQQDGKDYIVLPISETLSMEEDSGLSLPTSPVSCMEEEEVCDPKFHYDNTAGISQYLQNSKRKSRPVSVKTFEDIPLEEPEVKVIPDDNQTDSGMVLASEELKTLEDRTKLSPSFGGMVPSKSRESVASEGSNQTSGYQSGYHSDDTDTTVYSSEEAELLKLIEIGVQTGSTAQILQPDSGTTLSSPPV

Row | MLK3 % @ 1 μM (MLK3) [%] | IC50 (recombinant human PARP; Table 2) [nM] | Compound | other results
1 | – | – | NC(=O)c1cccc(N)c1 [Compound 3-AB, 3-aminobenzamide] | decrease in infarct volume [2]: 47%; infarct volume [3]: significantly reduced
2 | 26 | – | O=C1NC(=O)c2c1c1c(c3[nH]c4ccccc4c23)CCCC1 [Compound 11b, 5,7,9,10,11,12-Hexahydrocyclohexano[a]pyrrolo[3,4-c]carbazole-5(6H), 7(8H)-dione] | IC50 [1]: 698 nM
3 | 74 | – | O=C1NC(=O)c2c1c1cnccc1c1[nH]c3ccccc3c21 [Compound 12a] | IC50 [1]: 235 nM
4 | 35 | – | O=C1NC(=O)c2c1c1ccccc1c1[nH]c3ccccc3c21 [Compound 11e] | IC50 [1]: 166 nM
5 | – | – | O=C1NCCc2c(OCCCCN3CCCCC3)cccc21 [DPQ, 3,4-dihydro-5-[4-(1-piperidinyl)butoxy]-1(2H)-isoquinolinone] | reduction in infarct volume [4]: 54%
6 | – | – | O=C1NCc2c3c(c4[nH]c5ccccc5c4c21)CCC3 [Compound 11a, 5,7,8,9,10,11-Hexahydrocyclopent[a]pyrrolo[3,4-c]carbazole-5(6H)-one] | IC50 [1]: 477 nM
7 | 52 | – | Cn1c2ccccc2c2c3c(c4c(c21)CCCC4)C(=O)NC3=O [Compound 11d] | IC50 [1]: 778 nM
8 | – | 27 | COC(=O)c1ccc2[nH]c3c4c(c5c(c3c2c1)C(=O)NC5=O)CCC4 [Compound 2bi] | –
9 | – | 31 | CN(C)CC(=O)OCc1ccc2[nH]c3c4c(c5c(c3c2c1)C(=O)NC5=O)CCC4 [Compound 2bg] | –
10 | – | 26 | O=C(NCCN1CCOCC1)c1ccc2[nH]c3c4c(c5c(c3c2c1)C(=O)NC5=O)CCC4 [Compound 2cn] | –
11 | – | 24 | CN(CCc1ccccn1)C(=O)c1ccc2[nH]c3c4c(c5c(c3c2c1)C(=O)NC5=O)CCC4 [Compound 2cw] | –
12 | – | 93 | CC(C)(C)OC(=O)NCc1ccc2[nH]c3c4c(c5c(c3c2c1)C(=O)NC5=O)CCC4 [Compound 2ad, 3-(N-Boc-aminomethyl)-5,7,8,9,10,11-hexahydrocyclopent[a]pyrrolo[3,4-c]carbazole-5(6H), 7-dione] | –
13 | – | 7 | CC(C)(C)OC(=O)[C@@H]1CCCN1C(=O)CCC(=O)c1ccc2[nH]c3c4c(c5c(c3c2c1)C(=O)NC5=O)CCC4 [Compound 4h] | –
14 | – | – | O=C1NC(=O)c2c1c1c(c3[nH]cc(Br)c23)CCC1 [Compound 8c, 3-Bromo-1,6,7,8-tetrahydrocyclopent[g]indole-4,5-dicarboxylate imide] | IC50 (recombinant human PARP; Table 4): 5 nM
15 | – | – | COc1cccc2[nH]c3c4c(c5c(c3c12)C(=O)N(CN1CCOCC1)C5=O)CCC4 [Compound 16d] | IC50 (recombinant human PARP; Table 18): 11 nM

Row | Compound | MLK3 % @ 1 μM (MLK3) [%] | IC50 (recombinant human PARP; Table 2) [nM] | other results
16 | O=C1NC(=O)c2c1c1c(c3[nH]c4ccccc4c23)CCO1 [Compound 11f, 5,7,10,11-Tetrahydrofuran[a-3,2]pyrrolo[3,4-c]carbazole-5(6H), 7(9H)-dione] | 62 | – | VEGFR2 % @ 300 nM [1]: 3%
17 | 9-Ethyl-8-propyl-5,7-dihydropyrrolo[3,4-c]carbazole-5(6H), 7(10H)-dione [Compound 11c] | 46 | – | VEGFR2 % @100 nM ([1]; percent inhibition at 100 nM): 0% @100 nM
18 | O=C1NC(=O)c2c1c1occc1c1[nH]c3ccccc3c21 [Compound 11g, 5,7-Dihydrofuran[a-3,2]pyrrolo[3,4-c]carbazole-5(6H), 7(11H)-dione] | 16 | – | VEGFR2 % @ 300 nM [1]: 8%
